ChEMBL document CHEMBL3638798, “Metastin derivative and use thereof” (2013)

Target: KiSS-1 receptor (Homo sapiens, UniProt Q969F8)
Assay: Binding Assay: Binding inhibition assay using human GPR54.

Chain of KiSS-1 receptor (Q969F8 whole entry): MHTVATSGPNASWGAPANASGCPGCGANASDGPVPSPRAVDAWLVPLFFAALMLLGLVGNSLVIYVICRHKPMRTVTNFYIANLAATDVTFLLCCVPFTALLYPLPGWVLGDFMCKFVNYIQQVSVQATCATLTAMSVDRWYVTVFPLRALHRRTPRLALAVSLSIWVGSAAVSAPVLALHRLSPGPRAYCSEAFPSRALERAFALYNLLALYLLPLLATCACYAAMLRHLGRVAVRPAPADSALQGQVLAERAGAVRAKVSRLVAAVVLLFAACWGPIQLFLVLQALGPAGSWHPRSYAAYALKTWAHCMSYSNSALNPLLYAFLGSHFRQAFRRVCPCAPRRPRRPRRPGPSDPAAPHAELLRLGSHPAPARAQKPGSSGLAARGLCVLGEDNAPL

With `CNCC(=O)N[C@@H](CC(C)C)C(C)=O` the IC50 was 0.71 nM.
